{
  "source": "patent US20100298348A1",
  "about": "“Method of Decreasing Ubiquitylated Protein Levels” (priority 2009, published 2010)",
  "key": {"Neuro2a cells": {"test_system": "Neuro2a cells", "test": "Aβ production by Neuro2a cells, ELISA of culture medium", "type": "cell-based, murine", "details": "24 hours treatment, vs control", "description": "Neuro2a is a murine neuroblastoma cell line that is known to produce amyloid peptides Aβ1-40 and Aβ1-42 in amounts measurable by ELISA assays. These forms of Aβ have been correlated with the pathology in AD brain and Aβ1-42 in particular is postulated to have the ability to block a7 nicotinic receptors and to produce direct neurotoxic effects. Neuro2a cells were treated for 24 hours with ST101 added to the tissue culture medium. Tissue culture medium was collected and analyzed by ELISA for the presence of Aβ."}, "SAMP8 mouse": {"test_system": "SAMP8 mouse", "details": "cited from earlier work"}, "proteasome": {"test_system": "proteasome", "test": "Western blot of proteasome subunits in brain extracts", "type": "in vivo, mouse", "details": "12-month-old 3xTg-AD mice, 5 mg/kg/day, 2 months", "description": "Brain extracts from 12-month-old 3xTg-AD mice (described in Example 15) that had been treated with ST101 at 5/mg/kg/day in drinking water over 2 months were analyzed in Western blots using an anti-proteasome alpha-subunit antibody."}, "ADAM10": {"test_system": "ADAM10", "test": "Western blot of ADAM10 in cynomolgus monkey hippocampus", "type": "in vivo", "details": "male cynomolgus monkeys, 9 months oral, 100 mg/kg/day", "description": "(§1) Male cynomolgus monkeys were treated for 9 months with 0, 10, 30 or 100 mg/kg/day ST101 with once daily oral drug administration. Hippocampal brain samples were analyzed in Western blots and ELISAs for APP fragments and Aβ. […] Reductions in a ˜55-kDa fragment were also seen with treatment in these groups. Black outlines depict image level enhancement in Adobe Photoshop CS4, to better visualize weak signals. […] However, long exposures reveal the presence of the 17-kDa APP fragment only in treated monkeys (antibody CT20, Calbiochem). This fragment was not detected in either the 30 or 10 mg/kg/day ST101 groups. Error bars indicate SEM (standard error of the mean) and * indicates statistical significance versus control (p<0.05). (S: ST101-treated animals, versus C: control animals)."}, "ADAM17 (TACE)": {"test_system": "ADAM17 (TACE)", "test": "Western blot of TACE in 3xTg-AD mouse brain", "type": "in vivo", "details": "3xTg-AD mice ~14.5 months old, 5 mg/kg/day in drinking water, 2 months as printed", "description": "In addition to ADAM10, ADAM17 (TACE, which is Tumor Necrosis Factor converting enzyme) is known to act as an alpha-secretase of APP. Thus, it was tested in a Western blot whether ST101 reduces levels of ADAM17 (TACE).\nThe Western blot was obtained using a TACE specific antibody in brain extracts from ST101 treated 3×TG-AD mice (S) versus control mice (C). Animals were approximately 14.5 months old at sacrifice after 2 months of treatment with ST101 at 5 mg/kg/day in drinking water."}, "Aβ42": {"test_system": "Aβ42", "test": "Sandwich ELISA of Aβ42 in cynomolgus monkey hippocampal lysates, 9-month study", "type": "in vivo", "details": "male cynomolgus monkeys, 9 months oral", "description": "as §1"}, "[1]": {"test_system": "rodent models of learning and memory", "details": "cited from earlier work"}, "sAPP-beta": {"test_system": "sAPP-beta", "test": "Western blot of sAPP-beta in 3xTg-AD mouse brain", "type": "in vivo", "details": "3xTg-AD mice ~14.5 months old, 5 mg/kg/day in drinking water, 2 months as printed", "description": "FIG. 10B describes a reduction of fragment C99. C99 is created by BACE cleavage which leads to release of soluble APP, specifically sAPP-beta. […] The Western blot was obtained using an sAPP-beta specific antibody in brain extracts from ST101 treated 3×TG-AD mice (S) versus control mice (C). Animals were approximately 14.5 months old at sacrifice after 2 months of treatment with ST101 at 5 mg/kg/day in drinking water."}, "3xTg-AD mice": {"test_system": "3xTg-AD mice", "test": "Morris Water Maze in 3xTg-AD mice", "type": "in vivo, mouse", "details": "2 months; for Morris Water Maze crosses over former platform location, retention testing / Morris Water Maze latency, retention testing: 3xTg-AD mice, 5 mg/kg/day", "description": "3xTg-AD mice of approximately one year of age were treated for 2 months with ST101. An average dose of 5 mg/kg/day was administered in drinking water (calculated dose, based on mean water consumption). Behavioral effects were tested by assessing performance on the Morris Water Maze. Biochemical effects were examined by measuring brain content of Aβ and APP by ELISA and Western Blot.\nBehavioral Effects: Performance of 3xTg-AD Mice in the Morris Water Maze (MWM), adapted from Roozendaal et al., Proc. Natl. Acad. Sci. U.S.A. 100: 1328-1333 (2003).\nThe MWM tests both spatial memory (i.e. hippocampus dependent) and cued learning (i.e. non-hippocampal) in rodents. The maze is a circular tank filled with opaque water. Mice are placed in the water and must swim to find and escape onto a platform submerged 1.5 cm beneath the surface of the water. The time (in seconds) required to find the platform is recorded. Animals rely on visual cues in the room containing the tank in order to find the platform on successive challenges. Training was conducted daily for seven consecutive days.\nRetention of training was assessed twice, 24 and 72 hours after the final training trial. Animals were subjected to a 60-second free swim in the tank with the platform removed. Parameters measured included (1) latency: time required to reach the former platform location and (2) crosses: the number of times the animal swam across the former platform location."}, "BACE1": {"test_system": "BACE1", "test": "Western blot of BACE in 3xTg-AD mouse brain", "type": "in vivo", "details": "3xTg-AD mice ~12 months old, 5 mg/kg/day, 2 months", "description": "APP C-terminal fragments C99 and C83 are created by beta-secretase and alpha-secretase cleavage respectively. The reduction of both C99 and C83 induced by ST101 could therefore be due to reduction or inhibition of secretases. This hypothesis was tested using Western blots of brain extracts from 3xTg-AD mice from the initial experiment in 12-month-old animals treated with ST101 for 2 months. The only beta-secretase is BACE1 and the constitutive alpha-secretase is ADAM10.\nWestern blots were probed with antibodies against BACE1 and ADAM10. FIG. 11A is a series of Western blots depicting levels of proADAM10, ADAM10, proBACE, BACE, Presenilinl and APP-CFTs in brain extracts from ST101 treated 3×TG-AD mice (S) versus control mice (C). C: control brain extract. S: ST101-treated brain extract. Animals were approximately 12 months old at sacrifice after 2 months of treatment with ST101 at 5 mg/kg/day."}, "[2]": {"test": "Chronic and reproductive toxicity studies", "type": "in vivo"}},
  "data": [
    {"smiles": "O=C1N=C2C=CC=CN2C12Cc1ccccc1C2", "note": "[ST101, spiro(imidazo[1,2-a]pyridin-2(3H)-one-3,2′-indan)]", "values": [
      {"measurement": "Aβ1-40 concentration in cell culture medium", "setting": "Neuro2a cells", "result": "without major effects"},
      {"measurement": "Aβ1-42 concentration in cell culture medium", "setting": "Neuro2a cells", "result": "significantly reduced"},
      {"measurement": "accumulation of Aβ-like deposits in brain tissue", "setting": "SAMP8 mouse", "result": "decreased"},
      {"measurement": "learning and memory functions", "setting": "SAMP8 mouse", "result": "improvement"},
      {"measurement": "concentration of proteasome alpha subunits", "setting": "proteasome", "result": "No difference is apparent"},
      {"measurement": "high molecular weight bands reactive with proteasome alpha-subunit antibody", "setting": "proteasome", "result": "clear decrease"},
      {"measurement": "proteasome subunit beta 2i", "setting": "proteasome", "result": "did not reveal changes"},
      {"measurement": "proteasome subunit beta 5i", "setting": "proteasome", "result": "did not reveal changes"},
      {"measurement": "ADAM10 level", "setting": "ADAM10", "result": "no differences"},
      {"measurement": "TACE levels", "setting": "ADAM17 (TACE)", "result": "reduction of TACE levels in the majority of ST101 treated animals"},
      {"measurement": "Aβ42 in hippocampal lysates", "setting": "Aβ42; 10 mg/kg/day", "result": "significant increases"},
      {"measurement": "Aβ42 in hippocampal lysates", "setting": "Aβ42; 30 mg/kg/day", "result": "significant decreases"},
      {"measurement": "Aβ42 in hippocampal lysates", "setting": "Aβ42; 100 mg/kg/day", "result": "significant decreases"},
      {"measurement": "memory deficits induced by chemical amnesic agents", "setting": "[1]; methamphetamine, MK-801, scopolamine", "result": "attenuates"},
      {"measurement": "age-impaired memory", "setting": "[1]; rodent models", "result": "significantly improves"},
      {"measurement": "sAPP-beta", "setting": "sAPP-beta", "result": "concomitant reduction"},
      {"measurement": "Morris Water Maze latency during training", "setting": "3xTg-AD mice; 3xTg-AD mice ~1 year old, 5 mg/kg/day in drinking water, successive days of 7-day training, vs controls", "result": "greater reductions in latency"},
      {"measurement": "Morris Water Maze crosses over former platform location, retention testing", "setting": "3xTg-AD mice; 24 hours after final training", "result": "increases in crosses"},
      {"measurement": "Morris Water Maze latency, retention testing", "setting": "3xTg-AD mice; 24 hours after final training", "result": "reductions in latency"},
      {"measurement": "Morris Water Maze crosses over former platform location, retention testing", "setting": "3xTg-AD mice; 72 hours after final training", "result": "increases in crosses"},
      {"measurement": "Morris Water Maze latency, retention testing", "setting": "3xTg-AD mice; 72 hours after final training", "result": "reductions in latency"},
      {"measurement": "BACE protein level", "setting": "BACE1", "result": "profound reduction"},
      {"measurement": "Pro-BACE protein level", "setting": "BACE1", "result": "not significantly affected"},
      {"measurement": "toxicity in chronic toxicity studies", "setting": "[2]; high doses", "result": "very little toxicity"},
      {"measurement": "toxicity in reproductive toxicity studies", "setting": "[2]; monkey, in vivo", "result": "very little toxicity"},
      {"measurement": "safety in rodent and monkey toxicity studies", "setting": "[2]; up to 6 months, doses up to approximately 100-fold higher than in 3xTg-AD mice", "result": "proven safe"}
    ]}
  ]
}
